# From US11400058B2, “Intravenous formulations of coenzyme Q10 (CoQ10) and methods of use thereof” (Berg LLC, priority 2010, dated 2022)
# Marks after values point to notes of the source that are not given here.
# Assay: 4-week repeat-dose toxicology study in rats with 2-week recovery (Study 20000328)
# Conditions: for Died or Sacrificed Moribund: animals of 15
# [1] = 62.5 mg/kg F, end of dosing, animals of 10
# [2] = 62.5 mg/kg F, end of recovery, animals of 5
# [3] = 62.5 mg/kg M, end of dosing, animals of 10
smiles,measurement,setting,value
"COC1=C(OC)C(=O)C(C/C=C(\C)CC/C=C(\C)CC/C=C(\C)CC/C=C(\C)CC/C=C(\C)CC/C=C(\C)CC/C=C(\C)CC/C=C(\C)CC/C=C(\C)CCC=C(C)C)=C(C)C1=O [CoQ10, Coenzyme Q10]",Died or Sacrificed Moribund,62.5 mg/kg F,0
same,ALT,"62.5 mg/kg F, end of dosing",19 IU/L
same,APPT,"62.5 mg/kg F, end of dosing",15.1 s
same,AST,"62.5 mg/kg F, end of dosing",67* IU/L
same,"Body Weight, percent difference from controls","62.5 mg/kg F, end of dosing",−1.7%
same,Eosinophils,"62.5 mg/kg F, end of dosing",0.09 10^3/cmm
same,Erythrocytes,"62.5 mg/kg F, end of dosing",7.77* 10^6/cmm
same,"Food Consumption, percent difference from controls","62.5 mg/kg F, end of dosing",−4.0%
same,GGT,"62.5 mg/kg F, end of dosing",0.42 IU/L
same,Hematocrit,"62.5 mg/kg F, end of dosing",42.4* %
same,Hemoglobin,"62.5 mg/kg F, end of dosing",14.7* g/dL
same,Leukocytes,"62.5 mg/kg F, end of dosing",8.33 10^3/cmm
same,"Liver weight (absolute), percent difference from controls","62.5 mg/kg F, end of dosing",−6.1%
same,Lymphocytes,"62.5 mg/kg F, end of dosing",6.79 10^3/cmm
same,Neutrophils,"62.5 mg/kg F, end of dosing",1.06 10^3/cmm
same,"Spleen weight (absolute), percent difference from controls","62.5 mg/kg F, end of dosing",−48.2* %
same,"Bone Marrow, Sternum Hyperplasia",[1],0
same,"Bone Marrow, Sternum Hyperplasia, Mild",[1],0
same,"Bone Marrow, Sternum Hyperplasia, Minimal",[1],0
same,Gross Pathology: Enlarged Pancreatic Lymph Nodes,[1],0
same,Gross Pathology: Pale Adrenal,[1],0
same,Gross Pathology: Pale Liver,[1],7
same,Gross Pathology: Pale Lymph Nodes,[1],1
same,Gross Pathology: Pale Ovaries,[1],0
same,Gross Pathology: Pale Pituitary,[1],0
same,Gross Pathology: Pale SQ Skin,[1],0
same,Liver Focal Necrosis,[1],1
same,"Liver Focal Necrosis, Minimal",[1],1
same,Liver Histiocytic Infiltration,[1],7
same,"Liver Histiocytic Infiltration, Mild",[1],0
same,"Liver Histiocytic Infiltration, Minimal",[1],7
same,"Liver Histiocytic Infiltration, Moderate",[1],0
same,Liver Vacuolation,[1],7
same,"Liver Vacuolation, Mild",[1],0
same,"Liver Vacuolation, Minimal",[1],7
same,"Lymph Node, Man. Histiocytic Infiltration",[1],4
same,"Lymph Node, Man. Histiocytic Infiltration, Mild",[1],0
same,"Lymph Node, Man. Histiocytic Infiltration, Minimal",[1],4
same,"Lymph Node, Man. Histiocytic Infiltration, Moderate",[1],0
same,"Lymph Node, Mes. Histiocytic Infiltration",[1],9
same,"Lymph Node, Mes. Histiocytic Infiltration, Mild",[1],2
same,"Lymph Node, Mes. Histiocytic Infiltration, Minimal",[1],7
same,"Lymph Node, Mes. Histiocytic Infiltration, Moderate",[1],0
same,Ovary Histiocytic Infiltration,[1],0
same,"Ovary Histiocytic Infiltration, Mild",[1],0
same,"Ovary Histiocytic Infiltration, Minimal",[1],0
same,"Ovary Histiocytic Infiltration, Moderate",[1],0
same,"Skin, Dermis Histiocytic Infiltration",[1],0
same,"Skin, Dermis Histiocytic Infiltration, Marked",[1],0
same,"Skin, Dermis Histiocytic Infiltration, Mild",[1],0
same,"Skin, Dermis Histiocytic Infiltration, Moderate",[1],0
same,"Skin, SQ Histiocytic Infiltration",[1],0
same,"Skin, SQ Histiocytic Infiltration, Mild",[1],0
same,Spleen Histiocytic Infiltration,[1],4
same,"Spleen Histiocytic Infiltration, Marked",[1],0
same,"Spleen Histiocytic Infiltration, Mild",[1],4
same,"Spleen Histiocytic Infiltration, Moderate",[1],0
same,ALT,"62.5 mg/kg F, end of recovery",19 IU/L
same,APPT,"62.5 mg/kg F, end of recovery",14.4 s
same,AST,"62.5 mg/kg F, end of recovery",83 IU/L
same,"Body Weight, percent difference from controls","62.5 mg/kg F, end of recovery",−0.9%
same,"Food Consumption, percent difference from controls","62.5 mg/kg F, end of recovery",−7.9%
same,GGT,"62.5 mg/kg F, end of recovery",0.12 IU/L
same,"Liver weight (absolute), percent difference from controls","62.5 mg/kg F, end of recovery",+4.6%
same,"Spleen weight (absolute), percent difference from controls","62.5 mg/kg F, end of recovery",+0.5%
same,Adrenal Gland Vacuolation,[2],3
same,"Adrenal Gland Vacuolation, Marked",[2],0
same,"Adrenal Gland Vacuolation, Mild",[2],0
same,"Adrenal Gland Vacuolation, Minimal",[2],3
same,"Adrenal Gland Vacuolation, Moderate",[2],0
same,Gross Pathology: Enlarged Spleen,[2],0
same,Gross Pathology: Pale Iliac Lymph Node,[2],2
same,Gross Pathology: Pale Liver,[2],3
same,Gross Pathology: Pale Ovaries,[2],0
same,Gross Pathology: Pale Pancreatic Lymph Node,[2],1
same,Liver Focal Necrosis,[2],0
same,"Liver Focal Necrosis, Mild",[2],0
same,"Liver Focal Necrosis, Minimal",[2],0
same,Liver Histiocytic Infiltration,[2],5
same,"Liver Histiocytic Infiltration, Mild",[2],2
same,"Liver Histiocytic Infiltration, Minimal",[2],3
same,"Liver Histiocytic Infiltration, Moderate",[2],0
same,Liver Multifocal Necrosis,[2],0
same,"Liver Multifocal Necrosis, Mild",[2],0
same,"Liver Multifocal Necrosis, Moderate",[2],0
same,Liver Vacuolation,[2],5
same,"Liver Vacuolation, Mild",[2],2
same,"Liver Vacuolation, Minimal",[2],2
same,"Liver Vacuolation, Moderate",[2],1
same,"Lymph Node, Man. Histiocytic Infiltration",[2],2
same,"Lymph Node, Man. Histiocytic Infiltration, Mild",[2],0
same,"Lymph Node, Man. Histiocytic Infiltration, Minimal",[2],2
same,"Lymph Node, Man. Histiocytic Infiltration, Moderate",[2],0
same,"Lymph Node, Mes. Histiocytic Infiltration",[2],4
same,"Lymph Node, Mes. Histiocytic Infiltration, Mild",[2],0
same,"Lymph Node, Mes. Histiocytic Infiltration, Minimal",[2],4
same,Ovary Histiocytic Infiltration,[2],4
same,"Ovary Histiocytic Infiltration, Mild",[2],0
same,"Ovary Histiocytic Infiltration, Minimal",[2],4
same,"Ovary Histiocytic Infiltration, Moderate",[2],0
same,Spleen Histiocytic Infiltration,[2],3
same,"Spleen Histiocytic Infiltration, Marked",[2],0
same,"Spleen Histiocytic Infiltration, Mild",[2],1
same,"Spleen Histiocytic Infiltration, Minimal",[2],2
same,"Spleen Histiocytic Infiltration, Moderate",[2],0
same,Died or Sacrificed Moribund,62.5 mg/kg M,0
same,ALT,"62.5 mg/kg M, end of dosing",22 IU/L
same,APPT,"62.5 mg/kg M, end of dosing",17.6 s
same,AST,"62.5 mg/kg M, end of dosing",74 IU/L
same,"Body Weight, percent difference from controls","62.5 mg/kg M, end of dosing",−0.5%
same,Eosinophils,"62.5 mg/kg M, end of dosing",0.09* 10^3/cmm
same,Erythrocytes,"62.5 mg/kg M, end of dosing",8.14* 10^6/cmm
same,"Food Consumption, percent difference from controls","62.5 mg/kg M, end of dosing",+2.5%
same,GGT,"62.5 mg/kg M, end of dosing",0.00 IU/L
same,Hematocrit,"62.5 mg/kg M, end of dosing",44.3%
same,Hemoglobin,"62.5 mg/kg M, end of dosing",15.1* g/dL
same,Leukocytes,"62.5 mg/kg M, end of dosing",8.56* 10^3/cmm
same,"Liver weight (absolute), percent difference from controls","62.5 mg/kg M, end of dosing",−5.5%
same,Lymphocytes,"62.5 mg/kg M, end of dosing",7.02* 10^3/cmm
same,Neutrophils,"62.5 mg/kg M, end of dosing",1.06 10^3/cmm
same,"Spleen weight (absolute), percent difference from controls","62.5 mg/kg M, end of dosing",−57.3* %
same,"Bone Marrow, Sternum Hyperplasia",[3],0
same,"Bone Marrow, Sternum Hyperplasia, Mild",[3],0
same,"Bone Marrow, Sternum Hyperplasia, Minimal",[3],0
same,Gross Pathology: Enlarged Pancreatic Lymph Nodes,[3],0
same,Gross Pathology: Pale Adrenal,[3],0
same,Gross Pathology: Pale Liver,[3],9
same,Gross Pathology: Pale Lymph Nodes,[3],0
same,Gross Pathology: Pale Pituitary,[3],0
same,Gross Pathology: Pale SQ Skin,[3],1
same,Liver Focal Necrosis,[3],0
same,"Liver Focal Necrosis, Minimal",[3],0
same,Liver Histiocytic Infiltration,[3],2
same,"Liver Histiocytic Infiltration, Mild",[3],1
same,"Liver Histiocytic Infiltration, Minimal",[3],1
same,"Liver Histiocytic Infiltration, Moderate",[3],0
same,Liver Vacuolation,[3],2
same,"Liver Vacuolation, Mild",[3],0
same,"Liver Vacuolation, Minimal",[3],2
same,"Lymph Node, Man. Histiocytic Infiltration",[3],6
same,"Lymph Node, Man. Histiocytic Infiltration, Mild",[3],1
same,"Lymph Node, Man. Histiocytic Infiltration, Minimal",[3],4
same,"Lymph Node, Man. Histiocytic Infiltration, Moderate",[3],1
same,"Lymph Node, Mes. Histiocytic Infiltration",[3],9
same,"Lymph Node, Mes. Histiocytic Infiltration, Mild",[3],4
same,"Lymph Node, Mes. Histiocytic Infiltration, Minimal",[3],5
same,"Lymph Node, Mes. Histiocytic Infiltration, Moderate",[3],0
same,"Skin, Dermis Histiocytic Infiltration",[3],0
same,"Skin, Dermis Histiocytic Infiltration, Marked",[3],0
same,"Skin, Dermis Histiocytic Infiltration, Mild",[3],0
same,"Skin, Dermis Histiocytic Infiltration, Moderate",[3],0
same,"Skin, SQ Histiocytic Infiltration",[3],0
same,"Skin, SQ Histiocytic Infiltration, Mild",[3],0
same,Spleen Histiocytic Infiltration,[3],1
same,"Spleen Histiocytic Infiltration, Marked",[3],0
